*1 amine or outer side, *2 acyl side, *3 side chain or, on linkers, in order; H or OH if unused. Where a SMILES comes first, the peptide text is derived from it. Bridges are numbered along the chain shown (N, C = ends). [ ]: non-standard residue; d: D form. The star is where a group is joined. ξ: configuration not given here. Phe(3R-OH) = O=C([C@@H](N[*:1])[C@H](O[*:3])c1ccccc1)[*:2]; NMeTrp(4-OMe) = CN[CH](Cc1c[nH]c2cccc(OC)c12)C(=O)O; X1 = O=C(C(N[*:1])C(O)c1ccccc1)[*:2]; NMeT = CN[CH](C(=O)O)[CH](C)O; NMeI = CC[CH](C)[CH](NC)C(=O)O; ξNMe2Val = CC(C)C(C(=O)*)N(C)C; NMeL = CN[CH](CC(C)C)C(=O)O; NMeV = CN[CH](C(=O)O)C(C)C
Columns and labels:
Assay type in all cases: binding
[1] = target: ClpC1-NTD AAFER (Mycobacterium tuberculosis, UniProt P9WPC9)
[2] = target: ClpC1-NTD FER (Mycobacterium tuberculosis, UniProt P9WPC9); settings: relative to wild type
[3] = target: ClpC1-FL L92S/L96P (Mycobacterium tuberculosis, UniProt P9WPC9, L92S/L96P)
[4] = target: ClpC1-NTD MVFER (Mycobacterium tuberculosis, UniProt P9WPC9); settings: relative to wild type
[5] = target: ClpC1-NTD MAFER (Mycobacterium tuberculosis, UniProt P9WPC9); settings: relative to wild type
[6] = target: ClpC1-FL Q17A (Mycobacterium tuberculosis, UniProt P9WPC9, Q17A)
[7] = target: ClpC1-FL K85A (Mycobacterium tuberculosis, UniProt P9WPC9, K85A)
[8] = target: ClpC1-FL V14A (Mycobacterium tuberculosis, UniProt P9WPC9, V14A)

| SMILES | reduction of binding affinity, Met1Ala mutation and Ala insertion [1] | reduction of binding affinity, deletion of Met1 [2] | binding to double mutant L92S/L96P (in words) [3] | reduction of binding, insertion of Val before Phe2 [4] | decrease of binding, insertion of Ala before Phe2 [5] | reduction of binding, Q17A [6] | reduction of binding affinity, K85A [7] | reduction of binding affinity, L92S/L96P [3] | reduction of binding affinity, V14A [8] |
| --- | --- | --- | --- | --- | --- | --- | --- | --- | --- |
| CCC(C)C(C(=O)NC1C(=O)N(C)C(C(C)O)C(=O)NC(C(C)C)C(=O)N(C)C(CC(C)C)C(=O)NC(C(C)C)C(=O)N(C)C(C(C)C)C(=O)N(C)C(Cc2c[nH]c3cccc(OC)c23)C(=O)NC(C(C)C)C(=O)NC(C(O)c2ccccc2)C(=O)NC(C(C)C)C(=O)OC1C)N(C)C(=O)C(NC(=O)C(C(C)C)N(C)C)C(C)C (centres unmarked) [ECU, ecumicin] (ξNMe2Val-V[NMeI]T[NMeT]V[NMeL]V[NMeV][NMeTrp(4-OMe)]V[X1]V; ester 3-C; configuration not given here) | 68 fold | 62 fold | abolished binding | 82 fold | 72 fold | sevenfold | ninefold |  |  |
| C/C=C/C[C@@H]1NC(=O)[C@H](CC(C)C)N(C)C(=O)[C@H](CC(C)C)NC(=O)[C@H](Cc2ccc(O)c([N+](=O)[O-])c2)NC(=O)[C@H](C)N2C(=O)[C@H](CC(C)C2O)N(C)C(=O)[C@H](Cc2cn(C(C)(C)C3CO3)c3ccccc23)NC1=O (some centres unmarked) [RUF-I, rufomycin I] |  | fivefold |  | sixfold |  | 17 fold | fivefold | threefold | eightfold |
| CN[C@H](C(=O)N[C@H](C(=O)N[C@@H]1C(=O)N(C)[C@@H]([C@@H](C)O)C(=O)N[C@@H](C(C)C)C(=O)N(C)[C@@H](CC(C)C)C(=O)N[C@@H](C(C)C)C(=O)N(C)[C@@H](C(C)C)C(=O)N(C)[C@@H](Cc2c[nH]c3cccc(OC)c23)C(=O)N[C@@H](C(C)C)C(=O)N[C@@H]([C@H](O)c2ccccc2)C(=O)N[C@@H](C(C)C)C(=O)O[C@@H]1C)C(C)C)C(C)C [OMS-A, ohmyungsamycin A] (H-[NMeV]VT[NMeT]V[NMeL]V[NMeV][NMeTrp(4-OMe)]V[Phe(3R-OH)]V; ester 3-C) |  |  | abolished binding |  |  |  |  |  |  |

From paper PMC7193532 (Acta Crystallographica. Section D, Structural Biology, 2020)
